Measurements: PubChem BioAssay AID1918952 (Molecular Pharmacology Branch, DTP, NCI, 2023)

Test system: LG0703-F948-PDC complex spheroid viability
Assay: Anticancer human tumor LG0703-F948-PDC patient-derived lung adenocarcinoma cell line growth inhibition
Details: for IC50: curve of first compound; for viability, T/C: stronger effect = lower value
Outline: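 Drug combinations with the LSD1 inhibitor iadademstat tested on tumor cells co-cultured as spheroids with endothelial cells and mesenchymal stem cells. Concentrations descended in half-log increments from clinical Cmax or 10 microM.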

[1] = second compound 0.1 µM, first compound 0.0316 µM
[2] = second compound 0.1 µM, first compound 0.1 µM
[3] = second compound 0.1 µM, first compound 0.316 µM
[4] = second compound 0.1 µM, first compound 1 µM
[5] = second compound 0.316 µM, first compound 0.0316 µM
[6] = second compound 0.316 µM, first compound 0.1 µM
[7] = second compound 0.316 µM, first compound 0.316 µM
[8] = second compound 0.316 µM, first compound 1 µM
[9] = second compound 1 µM, first compound 0.0316 µM
[10] = second compound 1 µM, first compound 0.1 µM
[11] = second compound 1 µM, first compound 0.316 µM
[12] = second compound 1 µM, first compound 1 µM
[13] = second compound 3.16 µM, first compound 0.0316 µM
[14] = second compound 3.16 µM, first compound 0.1 µM
[15] = second compound 3.16 µM, first compound 0.316 µM
[16] = second compound 3.16 µM, first compound 1 µM
[17] = second compound 10 µM, first compound 0.0316 µM
[18] = second compound 10 µM, first compound 0.1 µM
[19] = second compound 10 µM, first compound 0.316 µM
[20] = second compound 10 µM, first compound 1 µM
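Also: spheroids exposed to agents for seven days before readout.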
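For viability, T/C in this document: 100% = DMSO vehicle control wells as normalization base.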

## COc1ccc([C@@H](O)c2cc(-c3ncnc4cc(N5CCOCC5)ccc34)c(F)cc2Cl)nn1 + NC1CC1c1ccc(-c2cccc(O)c2)cc1
Second compound 0.1 µM
  IC50: 1520 nM
Second compound 0.316 µM
  IC50: 1590 nM
Second compound 1 µM
  IC50: 1490 nM
Second compound 3.16 µM
  IC50: 1210 nM
Second compound 10 µM
  IC50: 1140 nM
[1]
  viability, T/C: 90.3%
[2]
  viability, T/C: 110%
[3]
  viability, T/C: 96.5%
[4]
  viability, T/C: 61%
Second compound 0.1 µM, first compound 3.16 µM
  viability, T/C: 27.2%
Second compound 0.1 µM, first compound 10 µM
  viability, T/C: 3.8%
[5]
  viability, T/C: 112%
[6]
  viability, T/C: 98.2%
[7]
  viability, T/C: 98.7%
[8]
  viability, T/C: 68.2%
Second compound 0.316 µM, first compound 3.16 µM
  viability, T/C: 23%
Second compound 0.316 µM, first compound 10 µM
  viability, T/C: 4.64%
[9]
  viability, T/C: 98.8%
[10]
  viability, T/C: 96.7%
[11]
  viability, T/C: 98.7%
[12]
  viability, T/C: 63.8%
Second compound 1 µM, first compound 3.16 µM
  viability, T/C: 21.7%
Second compound 1 µM, first compound 10 µM
  viability, T/C: 3.41%
[13]
  viability, T/C: 107%
[14]
  viability, T/C: 101%
[15]
  viability, T/C: 86.1%
[16]
  viability, T/C: 59.2%
Second compound 3.16 µM, first compound 3.16 µM
  viability, T/C: 16.3%
Second compound 3.16 µM, first compound 10 µM
  viability, T/C: 2.59%
[17]
  viability, T/C: 108%
[18]
  viability, T/C: 99.4%
[19]
  viability, T/C: 90.4%
[20]
  viability, T/C: 57.9%
Second compound 10 µM, first compound 3.16 µM
  viability, T/C: 7.24%
Second compound 10 µM, first compound 10 µM
  viability, T/C: 2.33%

## Nc1ncn(C2CC(O)C(CO)S2)c(=O)n1 (stereo not given) + NC1CC1c1ccc(-c2cccc(O)c2)cc1
Second compound 0.1 µM
  IC50: > 300 nM
Second compound 0.316 µM
  IC50: > 300 nM
Second compound 1 µM
  IC50: > 300 nM
Second compound 3.16 µM
  IC50: > 300 nM
Second compound 10 µM
  IC50: > 300 nM
Second compound 0.1 µM, first compound 0.000949 µM
  viability, T/C: 114%
Second compound 0.1 µM, first compound 0.003 µM
  viability, T/C: 102%
Second compound 0.1 µM, first compound 0.00949 µM
  viability, T/C: 104%
Second compound 0.1 µM, first compound 0.03 µM
  viability, T/C: 108%
Second compound 0.1 µM, first compound 0.0949 µM
  viability, T/C: 108%
Second compound 0.1 µM, first compound 0.3 µM
  viability, T/C: 86.2%
Second compound 0.316 µM, first compound 0.000949 µM
  viability, T/C: 106%
Second compound 0.316 µM, first compound 0.003 µM
  viability, T/C: 92.7%
Second compound 0.316 µM, first compound 0.00949 µM
  viability, T/C: 91%
Second compound 0.316 µM, first compound 0.03 µM
  viability, T/C: 107%
Second compound 0.316 µM, first compound 0.0949 µM
  viability, T/C: 102%
Second compound 0.316 µM, first compound 0.3 µM
  viability, T/C: 81.1%
Second compound 1 µM, first compound 0.000949 µM
  viability, T/C: 117%
Second compound 1 µM, first compound 0.003 µM
  viability, T/C: 105%
Second compound 1 µM, first compound 0.00949 µM
  viability, T/C: 102%
Second compound 1 µM, first compound 0.03 µM
  viability, T/C: 108%
Second compound 1 µM, first compound 0.0949 µM
  viability, T/C: 82.4%
Second compound 1 µM, first compound 0.3 µM
  viability, T/C: 84.8%
Second compound 3.16 µM, first compound 0.000949 µM
  viability, T/C: 114%
Second compound 3.16 µM, first compound 0.003 µM
  viability, T/C: 101%
Second compound 3.16 µM, first compound 0.00949 µM
  viability, T/C: 90.8%
Second compound 3.16 µM, first compound 0.03 µM
  viability, T/C: 104%
Second compound 3.16 µM, first compound 0.0949 µM
  viability, T/C: 100%
Second compound 3.16 µM, first compound 0.3 µM
  viability, T/C: 71.5%
Second compound 10 µM, first compound 0.000949 µM
  viability, T/C: 104%
Second compound 10 µM, first compound 0.003 µM
  viability, T/C: 94.7%
Second compound 10 µM, first compound 0.00949 µM
  viability, T/C: 96.8%
Second compound 10 µM, first compound 0.03 µM
  viability, T/C: 105%
Second compound 10 µM, first compound 0.0949 µM
  viability, T/C: 103%
Second compound 10 µM, first compound 0.3 µM
  viability, T/C: 77.4%

## O=C(C=Cn1cnc(-c2cc(C(F)(F)F)cc(C(F)(F)F)c2)n1)NNc1cnccn1 + NC1CC1c1ccc(-c2cccc(O)c2)cc1
Second compound 0.1 µM
  IC50: 12.1 nM
Second compound 0.316 µM
  IC50: 18 nM
Second compound 1 µM
  IC50: 25.9 nM
Second compound 3.16 µM
  IC50: 69.1 nM
Second compound 10 µM
  IC50: 114 nM
Second compound 0.1 µM, first compound 0.00316 µM
  viability, T/C: 62.2%
Second compound 0.1 µM, first compound 0.01 µM
  viability, T/C: 54.6%
[1]
  viability, T/C: 38.8%
[2]
  viability, T/C: 34.7%
[3]
  viability, T/C: 31.8%
[4]
  viability, T/C: 25.4%
Second compound 0.316 µM, first compound 0.00316 µM
  viability, T/C: 67.6%
Second compound 0.316 µM, first compound 0.01 µM
  viability, T/C: 58.9%
[5]
  viability, T/C: 40%
[6]
  viability, T/C: 36.2%
[7]
  viability, T/C: 26%
[8]
  viability, T/C: 24.6%
Second compound 1 µM, first compound 0.00316 µM
  viability, T/C: 70.4%
Second compound 1 µM, first compound 0.01 µM
  viability, T/C: 58.8%
[9]
  viability, T/C: 47%
[10]
  viability, T/C: 39.5%
[11]
  viability, T/C: 29.5%
[12]
  viability, T/C: 22.6%
Second compound 3.16 µM, first compound 0.00316 µM
  viability, T/C: 70.4%
Second compound 3.16 µM, first compound 0.01 µM
  viability, T/C: 67.7%
[13]
  viability, T/C: 64%
[14]
  viability, T/C: 43.6%
[15]
  viability, T/C: 22.4%
[16]
  viability, T/C: 22%
Second compound 10 µM, first compound 0.00316 µM
  viability, T/C: 75.8%
Second compound 10 µM, first compound 0.01 µM
  viability, T/C: 73.1%
[17]
  viability, T/C: 64.2%
[18]
  viability, T/C: 54.9%
[19]
  viability, T/C: 31.7%
[20]
  viability, T/C: 23.7%
